≈ marks a conversion by molar mass, not a printed value.
How the values were obtained:
[1] = system: CCRF/CEM (human leukemia); parameters: method as in Boryczka et al. ([2013a], [b]); conditions: Neg = negative in the concentration used, ref Boryczka et al. ([2013a], [b]); cited from earlier work
[2] = system: BALB3T3 normal mouse fibroblasts; parameters: method as in Boryczka et al. ([2013a], [b]); conditions: murine BALB3T3 normal fibroblasts; Neg = negative in the concentration used; ref Boryczka et al. ([2013a], [b]); cited from earlier work
[3] = system: T47D (human breast cancer); parameters: method as in Boryczka et al. ([2013a], [b]); conditions: Neg = negative in the concentration used, ref Boryczka et al. ([2013a], [b]); cited from earlier work
[4] = system: HL-60 (human promyelocytic leukemia); test: Antiproliferative assay in vitro (MTT), HL-60; format: cell-based; conditions: for IC50: Homo sapiens, HL-60 cancer cell line, 96 h exposure, read-out: Cytotoxic activity IC50, HL-60
Procedure: (§1) The tested cell lines were obtained from the American Type Culture Collection (Rockville, Maryland, USA) and maintained at the Cell Culture Collection of the Institute of Immunology and Experimental Therapy (Wrocław, Poland). The cells were seeded in 96-well plates (Sarstedt, USA) at a density of 10^4 cells per well in 100 µL of culture medium overnight. […] The normal mouse fibroblasts BALB3T3 was cultured in Dulbecco’s modified Eagle’s medium (Sigma-Aldrich, Chemie GmbH, Steinheim, Germany) supplemented with 2 mM glutamine (Sigma-Aldrich, Chemie GmbH, Steinheim, Germany) and 10 % fetal calf serum FBS (Sigma-Aldrich, Chemie GmbH, Steinheim, Germany). The all culture media were supplemented with streptomycin (100 µg/mL) and penicillin (100 U/mL) (both antibiotics from Polfa, Tarchomin, Poland). The cell cultures were maintained at 37 °C in humid atmosphere saturated with 5 % CO2. The MTT assay was used for the cytotoxicity screening against leukemia cells growing in suspension culture. This assay was performed after 96 h of the leukemia cells to varying concentrations (ranging from 1 to 100 µg/mL) of the tested substances. The derivatives of betulin were dissolved in 10 % DMSO to concentration of 1 mg/mL, and next diluted in culture medium to reach the required concentrations. […] During the last 3–4 h of incubation 20 µl of MTT solution were added to each well (MTT: 3-(4,5-dimethylthiazol-2-yl)-2,5-diphenyl tetrazolium bromide; stock solution: 5 mg/mL). The pale yellow MTT is reduced to a navy blue formazan in the mitochondria of living cells. At the end of incubation time, 80 µL of the lysing mixture was added to each well (lysing mixture: 225 mL dimethylformamide, 67.5 g sodium dodecyl sulfate and 275 mL of distilled water). After 24 h are formed the crystals of formazan, which are insoluble in aqueous solutions. The formazan crystals had been dissolved. The optical densities were read on a Multiskan RC photometer at 570 nm wavelength. The compounds in given concentration were examined in triplicates in each experiment which was repeated 3–5 times. The results of cytotoxic activity in vitro were expressed as an IC50 in µg/mL.

P388 (mouse leukemia) [5] = system: P388 (mouse leukemia); parameters: method as in Boryczka et al. ([2013a], [b]); conditions: murine P388; Neg = negative in the concentration used; ref Boryczka et al. ([2013a], [b]); cited from earlier work
SW707 (human colorectal) [6] = system: SW707 (human colorectal); parameters: method as in Boryczka et al. ([2013a], [b]); conditions: Neg = negative in the concentration used, ref Boryczka et al. ([2013a], [b]); cited from earlier work
[7] = system: cyprid larvae of the barnacle Balanus albicostatus; parameters: method as in Chen et al., [2011]; conditions: ref Chen et al., [2011]; cited from earlier work
[8] = system: mouse melanoma (B16 2F2) cell line; parameters: method as in Hata et al., [2002]; conditions: ref Hata et al., [2002], read-out: anticancer effect IC50, B16 2F2; cited from earlier work
P388 (mouse leukemia) [9] = test: Antiproliferative assay in vitro (MTT), P388; format: cell-based; conditions: Mus musculus; murine P388; 96 h exposure; 1 to 100 µg/mL; Neg = negative in the concentration used; read-out: Cytotoxic activity IC50, P388
Procedure: as §1

[10] = system: T47D (human breast cancer); test: Antiproliferative assay in vitro (SRB), T47D; format: cell-based; conditions: human T47D; 96 h exposure; 1 to 100 µg/mL; Neg = negative in the concentration used; read-out: Cytotoxic activity IC50, T47D
Procedure: (§2) The tested cell lines were obtained from the American Type Culture Collection (Rockville, Maryland, USA) and maintained at the Cell Culture Collection of the Institute of Immunology and Experimental Therapy (Wrocław, Poland). The cells were seeded in 96-well plates (Sarstedt, USA) at a density of 10^4 cells per well in 100 µL of culture medium overnight. […] The normal mouse fibroblasts BALB3T3 was cultured in Dulbecco’s modified Eagle’s medium (Sigma-Aldrich, Chemie GmbH, Steinheim, Germany) supplemented with 2 mM glutamine (Sigma-Aldrich, Chemie GmbH, Steinheim, Germany) and 10 % fetal calf serum FBS (Sigma-Aldrich, Chemie GmbH, Steinheim, Germany). The all culture media were supplemented with streptomycin (100 µg/mL) and penicillin (100 U/mL) (both antibiotics from Polfa, Tarchomin, Poland). The cell cultures were maintained at 37 °C in humid atmosphere saturated with 5 % CO2. This technique as first was described by Skehan et al. in [1990]. The SRB assay was performed after 96 h exposure of the cultured cells to varying concentrations (ranging from 1 to 100 µg/mL) of the tested substances. The reported derivatives as well as betulin 1 were dissolved in 10 % dimethyl sulfoxide (DMSO) to concentration of 1 mg/mL, and next diluted in culture medium to reach the required concentrations. […] The cells fastened to the plastic were fixed mildly layering cold 50 % TCA (trichloroacetic acid, Aldrich-Chemie, Germany) on the top of the culture medium in each well. The plates were incubated at 4 °C for 1 h and then washed five times with tap water. The cells fixed with TCA were stained with 0.4 % sulforhodamine B (SRB, Sigma, Germany) dissolved in 1 % acetic acid (POCH, Gliwice, Poland) for 30 min. The unbound dye was removed by rinsing four times with 1 % acetic acid. The protein-bound dye was extracted with 10 mM unbuffered tris base (POCH, Gliwice, Poland) and then determined the optical density at 540 nm in a computer-interfaced, 96-well microtiter plate reader Multiscan RC photometer (Labsystems, Helsinki, Finland). The compounds in given concentration were examined in triplicates in each experiment which was repeated 3–5 times. The results of cytotoxic activity in vitro were expressed as an IC50 in µg/mL.

[11] = Antiproliferative assay in vitro (SRB), BALB3T3; format: cell-based, mouse; conditions: mouse; murine BALB3T3 normal fibroblasts; 96 h exposure; 1 to 100 µg/mL; Neg = negative in the concentration used; read-out: Cytotoxic activity IC50, BALB3T3
Procedure: as §2

[12] = system: CCRF/CEM (human leukemia); test: Antiproliferative assay in vitro (MTT), CCRF/CEM; format: cell-based; conditions: human CCRF/CEM; 96 h exposure; 1 to 100 µg/mL; Neg = negative in the concentration used; read-out: Cytotoxic activity IC50, CCRF/CEM
Procedure: as §1

SW707 (human colorectal) [13] = test: Antiproliferative assay in vitro (SRB), SW707; format: cell-based; conditions: human SW707; 96 h exposure; 1 to 100 µg/mL; Neg = negative in the concentration used; read-out: Cytotoxic activity IC50, SW707
Procedure: as §2

Row | SMILES | Cytotoxic activity IC50, CCRF/CEM [1] | Cytotoxic activity IC50, BALB3T3 [2] | Cytotoxic activity IC50, T47D [3] | IC50 [4] | fold potent than betulin 1 against HL-60 ([4]; relative to betulin 1, HL-60) | Cytotoxic activity IC50, P388 (P388 (mouse leukemia) [5]) | Cytotoxic activity IC50, SW707 (SW707 (human colorectal) [6]) | antifouling activity EC50 [7] | IC50 [8] | IC50 (P388 (mouse leukemia) [9]) | IC50 [10] | IC50 at 96 h [11] | IC50 [12] | IC50 (SW707 (human colorectal) [13]) | melting point
1 | C#CC(=O)OC[C@]12CC[C@@H](C(=C)C)C1C1CCC3[C@@]4(C)CC[C@H](O)C(C)(C)C4CC[C@@]3(C)[C@]1(C)CC2 (stereo partly drawn) [Compound 5, 28-O-propynoylbetulin] | 0.02 ± 0.001 µg/mL | 0.3 ± 0.05 µg/mL | 9.1 ± 1.9 µg/mL | 0.3 ± 0.004 µg/mL (≈ 0.606 µM) | 24 fold | 0.4 ± 0.1 µg/mL | 14.9 ± 3.3 µg/mL | – | – | – | – | – | – | – | –
2 | C=C(C)[C@@H]1CC[C@]2(COC(=O)C#Cc3ccccc3)CC[C@]3(C)C(CCC4[C@@]5(C)CC[C@H](O)C(C)(C)C5CC[C@]43C)C12 (stereo partly drawn) [Compound 7] | 49.0 ± 9.8 µg/mL | Neg | Neg | – | – | Neg | Neg | – | – | – | – | – | – | – | –
3 | C=C(C)[C@@H]1CC[C@]2(CO)CC[C@]3(C)[C@H](CC[C@@H]4[C@@]5(C)CCC(=O)C(C)(C)[C@@H]5CC[C@]43C)[C@@H]12 [Betulone 2, lup-20(29)-en-28-ol-3-one] | – | – | – | – | – | – | – | 8.73 µg/mL | 29.3 µM | – | – | – | – | – | –
4 | C=C(C)[C@@H]1CC[C@]2(COC(=O)CC)CC[C@]3(C)C(CCC4[C@@]5(C)CC[C@H](O)C(C)(C)C5CC[C@]43C)C12 (stereo partly drawn) [Compound 3] | 8.1 ± 0.9 µg/mL | 32.3 ± 23.0 µg/mL | 12.1 ± 4.4 µg/mL | 29.3 ± 3.4 µg/mL (≈ 58.7 µM) | – | 3.3 ± 0.8 µg/mL | 29.2 ± 24.4 µg/mL | – | – | – | – | – | – | – | –
5 | C=C(C)[C@@H]1CC[C@]2(COC(=O)C#CC)CC[C@]3(C)C(CCC4[C@@]5(C)CC[C@H](O)C(C)(C)C5CC[C@]43C)C12 (stereo partly drawn) [Compound 9, 28-O-(2-Butynoyl)betulin] | – | – | – | 24.5 ± 1.9 µg/mL (≈ 48.2 µM) | – | – | – | – | – | 2.9 ± 1.4 µg/mL (≈ 5.7 µM) | 16.7 ± 5.5 µg/mL (≈ 32.8 µM) | 17.4 ± 1.1 µg/mL (≈ 34.2 µM) | 2.1 ± 0.3 µg/mL (≈ 4.13 µM) | 24.3 ± 8.8 µg/mL (≈ 47.8 µM) | 111 to 113 °C
